How the values were obtained:
[1] = logP determination by HPLC (EEC Directive 79/831 Annex V. A8); type: physicochemical; conditions: HPLC gradient method, acetonitrile/0.1% aqueous phosphoric acid
Protocol: The logP values were determined in accordance with EEC Directive 79/831 Annex V. A8 by HPLC (gradient method, acetonitrile/0.1% aqueous phosphoric acid).

[2] = test system: Botrytis cinerea; assay: Botrytis test (cucumber)/protective; type: in vivo; conditions: young cucumber plants, protective spray, application rate 750 g/ha, evaluation 5-6 days after inoculation
Protocol: • Botrytis test (cucumber)/protective • Solvent: 49 parts by weight of N,N-dimethylformamide • Emulsifier: 1 part by weight of alkylaryl polyglycol ether
To produce a suitable preparation of active compound, 1 part by weight of active compound is mixed with the stated amounts of solvent and emulsifier, and the concentrate is diluted with water to the desired concentration.
To test for protective activity, young cucumber plants are sprayed with the preparation of active compound at the stated application rate. One day aft er the treatment, the plants are inoculated with a spore suspension of Botrytis cinerea and then remain at 100% relative hunmdity and 20° C. for 48 h. The plants then remain at 96% relative atmospheric-humidity and a temperature of 10° C.
Evaluation is carried out 5-6 days after the inoculation. 0% means an efficacy which corresponds to that of the control, whereas an efficacy of 100% means that no infection is observed.

Structure (SMILES) | logP [1] | efficacy [2] [%]
CC(Nc1nc2nccn2c(Cl)c1-c1c(F)cc(F)cc1F)[Si](C)(C)C (stereo not drawn) [Example 2, 5-chloro-6-(2,4,6-trifloropheny)-7-(1-trimethylsilylethylamino)imidazo[1,2-a]pyrimidine] | 2.18 | > 80
C[Si](C)(C)CNc1nc2nccn2c(Cl)c1-c1c(F)cc(F)cc1F [Example 1, 5-chloro-6-(2,4,6-trifluorophenyl-)-7-trimethylsilylmethylaminoimidazo[1,2-a]pyrimidine] | 2.09 | 

Reference: patent US20070185138A1, “Imidazolopyrimidines used as fungicidal active ingredients” (priority 2004, published 2007)
